Test results from patent publication US20260374756A1, “HETEROCYCLIC COMPOUNDS AS INHIBITORS OF MONOACYLGLYCEROL LIPASE (MAGL)” (Hoffmann-La Roche Inc., priority 2022, published 2026).

The compounds below were run against T1, hMAGL (Homo sapiens, UniProt Q99685) (assay: 2-AG assay: MAGL inhibition, hydrolysis of 2-arachidonoylglycerol to arachidonic acid followed by mass spectrometry).
T1 sequence (Q99685 1-303): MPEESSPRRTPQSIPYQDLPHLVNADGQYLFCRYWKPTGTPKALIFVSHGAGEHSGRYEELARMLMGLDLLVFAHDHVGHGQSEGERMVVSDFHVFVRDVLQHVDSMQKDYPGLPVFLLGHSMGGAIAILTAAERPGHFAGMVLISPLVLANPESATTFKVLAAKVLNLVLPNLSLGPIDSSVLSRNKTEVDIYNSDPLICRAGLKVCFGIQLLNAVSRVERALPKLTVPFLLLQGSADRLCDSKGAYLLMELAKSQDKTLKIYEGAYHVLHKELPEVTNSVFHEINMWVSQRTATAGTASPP
Format: biochemical
How it was run: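 Read-out is LC-MS/MS of arachidonic acid released from 2-arachidonoylglycerol (8 μM final), normalised to d8-arachidonic acid internal standard after acetonitrile quench. Enzyme […] and compound were pre-mixed 15 min, then reacted 30 min, both at RT, in Tris/EDTA buffer with 0.01% Tween-20 and 2.5% DMSO.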

Row | IC50 | Compound
1 | 21.8 nM | O=C(N1CC2(CCC(Cc3nnc(C(F)(F)F)[nH]3)CC2)C1)N1CC2(CC(n3cnc(C(F)(F)F)n3)C2)C1 [Example 34, [6-[3-(trifluoromethyl)-1,2,4-triazol-1-yl]-2-azaspiro[3.3]heptan-2-yl]-[7-[[5-(trifluoromethyl)-4H-1,2,4-triazol-3-yl]methyl]-2-azaspiro[3.5]nonan-2-yl]methanone]
2 | 2.26 nM | O=C(N1CC2(CC(Cc3n[nH]cc3C(F)(F)F)C2)C1)N1CC2(CC(n3cnc(C(F)F)n3)C2)C1 [Example 344, [6-[3-(difluoromethyl)-1,2,4-triazol-1-yl]-2-azaspiro[3.3]heptan-2-yl]-[6-[[4-(trifluoromethyl)-1H-pyrazol-3-yl]methyl]-2-azaspiro[3.3]heptan-2-yl]methanone]
3 | 355 nM | Cn1nccc1CN1CC2(C1)CN(C(=O)N1CC3(CC(n4cnc(C5CC5)n4)C3)C1)C2 [Example 277, [6-(3-cyclopropyl-1,2,4-triazol-1-yl)-2-azaspiro[3.3]heptan-2-yl]-[6-[(2-methylpyrazol-3-yl)methyl]-2,6-diazaspiro[3.3]heptan-2-yl]methanone]
4 | 1200 nM | O=C(N1CC2(CC(n3cnc(C(F)(F)F)n3)C2)C1)N1CC2(CN(Cc3nc(C(F)(F)F)n[nH]3)C2)C1 [Example 229, [6-[3-(trifluoromethyl)-1,2,4-triazol-1-yl]-2-azaspiro[3.3]heptan-2-yl]-[6-[[3-(trifluoromethyl)-1H-1,2,4-triazol-5-yl]methyl]-2,6-diazaspiro[3.3]heptan-2-yl]methanone]
5 | 11.8 nM | Cc1sc(CN2CC3(C2)CN(C(=O)N2CC4(CC(n5cnc(C6CC6)n5)C4)C2)C3)nc1C(F)(F)F [Example 55, [6-(3-cyclopropyl-1,2,4-triazol-1-yl)-2-azaspiro[3.3]heptan-2-yl]-[6-[[5-methyl-4-(trifluoromethyl)thiazol-2-yl]methyl]-2,6-diazaspiro[3.3]heptan-2-yl]methanone]
6 | 66.6 nM | Cc1onc(C2CC2)c1CN1CC2(C1)CN(C(=O)N1CC3(CC(n4cnc(C(F)(F)F)n4)C3)C1)C2 [Example 267, [6-[(3-cyclopropyl-5-methyl-isoxazol-4-yl)methyl]-2,6-diazaspiro[3.3]heptan-2-yl]-[6-[3-(trifluoromethyl)-1,2,4-triazol-1-yl]-2-azaspiro[3.3]heptan-2-yl]methanone]
7 | 41.3 nM | O=C(N1CC2(CC(n3cnc(C4CC4)n3)C2)C1)N1CC2(CN(Cc3nccn3CC(F)(F)F)C2)C1 [Example 234, [6-(3-cyclopropyl-1,2,4-triazol-1-yl)-2-azaspiro[3.3]heptan-2-yl]-[6-[[1-(2,2,2-trifluoroethyl)imidazol-2-yl]methyl]-2,6-diazaspiro[3.3]heptan-2-yl]methanone]
8 | 20 nM | O=C(N1CC2(CC(c3cc(C4CC4)n[nH]3)C2)C1)N1CC2(CN(Cc3nc(C(F)(F)F)co3)C2)C1 [Example 215, [6-(3-cyclopropyl-1H-pyrazol-5-yl)-2-azaspiro[3.3]heptan-2-yl]-[6-[[4-(trifluoromethyl)oxazol-2-yl]methyl]-2,6-diazaspiro[3.3]heptan-2-yl]methanone]
9 | 3.3 nM | Cn1ncc(CN2CC3(C2)CN(C(=O)N2CC4(CC(c5cc(C6CC6)n[nH]5)C4)C2)C3)c1C(F)(F)F [Example 163, [6-(3-cyclopropyl-1H-pyrazol-5-yl)-2-azaspiro[3.3]heptan-2-yl]-[6-[[1-methyl-5-(trifluoromethyl)pyrazol-4-yl]methyl]-2,6-diazaspiro[3.3]heptan-2-yl]methanone]
10 | 183 nM | Cc1c(CN2CC3(C2)CN(C(=O)N2CC4(CC(n5cnc(C6CC6)n5)C4)C2)C3)cnn1C [Example 309, [6-(3-cyclopropyl-1,2,4-triazol-1-yl)-2-azaspiro[3.3]heptan-2-yl]-[6-[(1,5-dimethylpyrazol-4-yl)methyl]-2,6-diazaspiro[3.3]heptan-2-yl]methanone]
11 | 20.4 nM | O=C(N1CC2(CC(Cc3n[nH]c(C(F)(F)F)n3)C2)C1)N1CC2(CC(n3cnc(C4(O)CC4)n3)C2)C1 [Example 11, [6-[3-(1-hydroxycyclopropyl)-1,2,4-triazol-1-yl]-2-azaspiro[3.3]heptan-2-yl]-[6-[[5-(trifluoromethyl)-1H-1,2,4-triazol-3-yl]methyl]-2-azaspiro[3.3]heptan-2-yl]methanone]
12 | 0.64 nM | CC(C)(C)c1csc(CN2CC3(C2)CN(C(=O)N2CC4(CC(n5cnc(C6CC6)n5)C4)C2)C3)n1 [Example 201, [6-[(4-tert-butylthiazol-2-yl)methyl]-2,6-diazaspiro[3.3]heptan-2-yl]-[6-(3-cyclopropyl-1,2,4-triazol-1-yl)-2-azaspiro[3.3]heptan-2-yl]methanone]
13 | 1630 nM | O=C(N1CC2(CC(n3cnc(C4CC4)n3)C2)C1)N1CC2(CN(Cc3cc[nH]n3)C2)C1 [Example 257, [6-(3-cyclopropyl-1,2,4-triazol-1-yl)-2-azaspiro[3.3]heptan-2-yl]-[6-(1H-pyrazol-3-ylmethyl)-2,6-diazaspiro[3.3]heptan-2-yl]methanone]
14 | 0.7 nM | O=C(N1CC2(CC(Cc3nnc(C4(C(F)(F)F)CC4)o3)C2)C1)N1CC2(CC(n3cnc(C4CC4)n3)C2)C1 [Example 8]
15 | 11.8 nM | O=C(N1CC2(CC(Cc3ncn(CC(F)(F)F)n3)C2)C1)N1CC2(CC(n3cnc(C(F)(F)F)n3)C2)C1 [Example 331, [6-[[1-(2,2,2-trifluoroethyl)-1,2,4-triazol-3-yl]methyl]-2-azaspiro[3.3]heptan-2-yl]-[6-[3-(trifluoromethyl)-1,2,4-triazol-1-yl]-2-azaspiro[3.3]heptan-2-yl]methanone]
16 | 135 nM | O=C(N1CC2(CC(Cc3ncn(CC(F)(F)F)n3)C2)C1)N1CC2(CC(n3cnc(C4(O)CC4)n3)C2)C1 [Example 203, [6-[3-(1-hydroxycyclopropyl)-1,2,4-triazol-1-yl]-2-azaspiro[3.3]heptan-2-yl]-[6-[[1-(2,2,2-trifluoroethyl)-1,2,4-triazol-3-yl]methyl]-2-azaspiro[3.3]heptan-2-yl]methanone]
17 | 138 nM | O=C(N1CC2(CC(n3cnc(C4(O)CC4)n3)C2)C1)N1CC2(CN(Cc3nc(C(F)(F)F)cs3)C2)C1 [Example 52]
18 | 2.57 nM | O=C(N1CC2(CC(Cc3nsc(C(F)(F)F)n3)C2)C1)N1CC2(CC(n3cnc(C4(O)CC4)n3)C2)C1 [Example 22, [6-[3-(1-hydroxycyclopropyl)-1,2,4-triazol-1-yl]-2-azaspiro[3.3]heptan-2-yl]-[6-[[5-(trifluoromethyl)-1,2,4-thiadiazol-3-yl]methyl]-2-azaspiro[3.3]heptan-2-yl]methanone]
19 | 50.1 nM | O=C(N1CC2(CC(n3cnc(C(F)(F)F)n3)C2)C1)N1CC2(CN(Cc3cc(C(F)(F)F)on3)C2)C1 [Example 189, [6-[[5-(trifluoromethyl)isoxazol-3-yl]methyl]-2,6-diazaspiro[3.3]heptan-2-yl]-[6-[3-(trifluoromethyl)-1,2,4-triazol-1-yl]-2-azaspiro[3.3]heptan-2-yl]methanone]
20 | 539 nM | O=C(N1CC2(CC(n3cnc(C(F)(F)F)n3)C2)C1)N1CC2(CN(Cc3cnn(C(F)F)c3)C2)C1 [Example 262, [6-[[1-(difluoromethyl)pyrazol-4-yl]methyl]-2,6-diazaspiro[3.3]heptan-2-yl]-[6-[3-(trifluoromethyl)-1,2,4-triazol-1-yl]-2-azaspiro[3.3]heptan-2-yl]methanone]
21 | 0.35 nM | O=C(N1CC2(CC(Cc3cn(CC(F)(F)F)nc3C(F)(F)F)C2)C1)N1CC2(CC(n3cnc(C(F)(F)F)n3)C2)C1 [Example 121, [6-[[1-(2,2,2-trifluoroethyl)-3-(trifluoromethyl)pyrazol-4-yl]methyl]-2-azaspiro[3.3]heptan-2-yl]-[6-[3-(trifluoromethyl)-1,2,4-triazol-1-yl]-2-azaspiro[3.3]heptan-2-yl]methanone]
22 | 2.08 nM | Cn1nc(CN2CC3(C2)CN(C(=O)N2CC4(CC(c5cc(C6CC6)n[nH]5)C4)C2)C3)cc1C(F)(F)F [Example 160]
23 | 2.4 nM | Cn1nc(CC2CC3(C2)CN(C(=O)N2CC4(CC(n5cnc(C6(O)CC6)n5)C4)C2)C3)c(C(F)(F)F)n1 [Example 137]
24 | 4.2 nM | O=C(N1CC2(CCN(Cc3cc(C(F)(F)F)[nH]n3)CC2)C1)N1CC2(CC(n3cnc(C4CC4)n3)C2)C1 [Example 29, [6-(3-cyclopropyl-1,2,4-triazol-1-yl)-2-azaspiro[3.3]heptan-2-yl]-[7-[[5-(trifluoromethyl)-1H-pyrazol-3-yl]methyl]-2,7-diazaspiro[3.5]nonan-2-yl]methanone]
25 | 133 nM | O=C(N1CC2(CC(n3cnc(C(F)(F)F)n3)C2)C1)N1CC2(CN(Cc3cnn(C(F)(F)F)c3)C2)C1 [Example 181, [6-[[1-(trifluoromethyl)pyrazol-4-yl]methyl]-2,6-diazaspiro[3.3]heptan-2-yl]-[6-[3-(trifluoromethyl)-1,2,4-triazol-1-yl]-2-azaspiro[3.3]heptan-2-yl]methanone]
26 | 13.1 nM | O=C(N1CC2(CC(n3cnc(C4CC4)n3)C2)C1)N1CC2(CN(Cc3cnc(C(F)(F)F)o3)C2)C1 [Example 212, [6-(3-cyclopropyl-1,2,4-triazol-1-yl)-2-azaspiro[3.3]heptan-2-yl]-[6-[[2-(trifluoromethyl)oxazol-5-yl]methyl]-2,6-diazaspiro[3.3]heptan-2-yl]methanone]
27 | 113 nM | O=C(N1CC2(CCC(Cc3nnc(C(F)(F)F)[nH]3)CC2)C1)N1CC2(CC(n3cnc(C(F)F)n3)C2)C1 [Example 315, [6-[3-(difluoromethyl)-1,2,4-triazol-1-yl]-2-azaspiro[3.3]heptan-2-yl]-[7-[[5-(trifluoromethyl)-4H-1,2,4-triazol-3-yl]methyl]-2-azaspiro[3.5]nonan-2-yl]methanone]
